Experiments:
[1] = system: Sprague Dawley rats; experiment: Cardiovascular and behavioral effects: ECG changes during i.v. infusion in conscious rats; assay type: in vivo, rat
Description: Preparative surgery is performed in Sprague Dawley rats weighing 200–300 gm and anaesthetized with 65 mg/kg (i.p.) pentobarbital. The femoral artery and vein are cannulated using polyethylene (PE)-10 tubing. Prior to surgery, this PE-10 tubing had been annealed to a wider gauge (PE-50) tubing for externalization. The cannulated PE-10/PE-50 tubing is passed through a trocar and exteriorised together with three (lead II) limb ECG leads (see below). The trocar is threaded under the skin of the back and out through a small incision at the mid-scapular region. A ground ECG electrode is inserted subcutaneously using a 20 gauge needle with the lead wire threaded through it. To place the other ECG electrodes, a small incision is made in the anterior chest region over the heart and ECG leads are inserted into the subcutaneous muscle layer in the region of the heart using a 20 guage needle. Other ECG leads are inserted into the subcutaneous muscle layer in the region near the base of the neck and shoulder (right side). The animal is returned to a clean recovery-cage with free access to food and water. The treatment and observational period for each animal commenced after a 24-hour recovery period.
A 15 min observational period is recorded followed by the intravenous infusion regime of the test compound at an initial dose of 2.0 μmol/kg/min (at 1 ml/hr). This rate is doubled every 5 minutes until one of the following effects is observed:
Blood pressure (BP), heart rate (HR) and ECG variables are continuously recorded while behavioral responses are also monitored and the total accumulative drug dose and drug infusion rate at which the response (such as convulsion, piloerection, ataxia, restlessness, compulsive chewing, lip-smacking, wet dog shake etc.) occurred are recorded.
Electrocardiograph (ECG) parameters: PR, QRS, QT1 (peak of T-wave), QT2 (midpoint of T-wave deflection) and hemodynamic parameters: BP and HR are analyzed using the automated analysis function in LabView (National Instruments) with a customized autoanalysis software (Nortran Pharmaceuticals). The infused dose producing 25% from control (D25) for all recorded ECG variables is determined.
Table 2 describes the results of the tests as D25 (micromol/kg) which are the doses required to produce a 25% increase in the ECG parameter measured (ne=not estimated). The increases in P-R interval and QRS interval indicate cardiac sodium channel blockade while the increase in Q-T interval indicates cardiac potassium channel blockade.

[2] = target: T1, Kv1.5 (Homo sapiens, UniProt P22460); experiment: Patch-clamp inhibition of cloned ion channel current in transfected HEK cells: Kv1.5; assay type: cell-based; settings: steady-state current, -80 mV to +60 mV
T1 construct: expressed in transfected cells; host or cells: HEK cells, transient transfection, vector pCDNA3
Summary of the method: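 Whole-cell patch clamp at 22–23 °C on transiently transfected HEK cells, compound 0.5–100 μM, pulses every 4 s. Na+: peak current, −100 mV holding, −30 mV for 10 ms; Kv1.5 (steady-state) and Kv4.2 (integrated): −80 mV holding, +60 mV for 200 ms. IC50 by Hill fit, 4–6 cells.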

T1 sequence (P22460 whole entry): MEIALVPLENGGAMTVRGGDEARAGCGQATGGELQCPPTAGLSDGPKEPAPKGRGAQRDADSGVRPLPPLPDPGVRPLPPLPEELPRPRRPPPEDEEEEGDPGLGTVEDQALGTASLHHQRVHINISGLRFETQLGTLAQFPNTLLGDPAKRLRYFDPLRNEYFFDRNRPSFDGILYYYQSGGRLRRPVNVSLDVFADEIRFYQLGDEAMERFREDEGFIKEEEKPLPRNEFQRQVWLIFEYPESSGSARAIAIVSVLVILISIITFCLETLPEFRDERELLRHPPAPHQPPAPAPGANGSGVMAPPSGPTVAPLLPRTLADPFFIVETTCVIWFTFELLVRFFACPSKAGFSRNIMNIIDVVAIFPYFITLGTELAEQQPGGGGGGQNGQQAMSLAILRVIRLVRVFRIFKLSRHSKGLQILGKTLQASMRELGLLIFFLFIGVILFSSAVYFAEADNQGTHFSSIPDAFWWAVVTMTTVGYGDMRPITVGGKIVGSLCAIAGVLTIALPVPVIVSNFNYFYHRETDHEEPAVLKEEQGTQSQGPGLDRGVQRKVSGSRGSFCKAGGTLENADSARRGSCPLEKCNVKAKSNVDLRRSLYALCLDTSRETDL

COc1ccc(CCCOc2cccn3cc(C)nc23)cc1OC [Compound 3, 8-[3-(3,4-DIMETHOXYPHENYL)PROPOXY]-2-METHYLIMIDAZO[1,2-α]PYRIDINE MONOHYDROCHLORDE]
D25 QT (dose required to produce a 25% increase in Q-T interval) ([1]; indicates cardiac potassium channel blockade): 16 µmol/kg | D25 PR (dose required to produce a 25% increase in P-R interval) ([1]; indicates cardiac sodium channel blockade): 21 µmol/kg | IC50 [2]: 6 µM

Reference: patent US7105534B2, “Imidazo[1,2-α]pyridine ether compounds as ion channel modulators” (Cardiome Pharma Corp., priority 2000, dated 2006)
